Measured values reported in patent publication US20160060235A1, “Therapeutic Agent for Type 2 Diabetes” (NATIONAL UNIVERSITY CORPORATION KUMAMOTO UNIVERSITY, priority 2013, published 2016).

Legend:
[1] = tested on: E. coli harboring pACYCDuet-1-Phe; experiment: Primary screening: dual luciferase assay of translation accuracy (frameshift mistranslation reporter); assay type: cell-based; conditions: versus DMSO control; for improvement of translation accuracy as compared with the control (in words): existing therapeutic agents for diabetes, 10 μM; for relative translation accuracy with the translation accuracy of the control defined as 1: compound at final concentration of 10 μM, shake culture 1 hour
Text: The vector map of the prepared plasmid pACYCDuet-1-Phe (SEQ ID NO: 1) is shown in the left diagram of FIG. 1. The phenylalanine codon TTT was designed as NNN. When translation takes place according to the normal reading frame, the stop codon TAA appears immediately after TTT so that the sequence is not translated into firefly luciferase. On the other hand, if mistranslation occurs in TTT so as to skip one T, the stop codon is circumvented so that the sequence is correctly translated into firefly luciferase. This means that the higher the accuracy of translation is, the lower the fluorescence intensity of firefly luciferase is.
Renilla luciferase gene is also cloned into this plasmid as a control.
The E. coli harboring pACYCDuet-1-Phe was cultured overnight at 37° C. using 100 mL of a culture medium. After confirmation that OD550 reached 0.4 to 1, 1 mL of the culture medium was dispensed, and each low-molecular compound was added thereto at a final concentration of 10 μM. After shake culture for 1 hour, the E. coli was recovered and lysed by suspension in 10 mM Tris-HCl (pH 7.4), 1 mM magnesium chloride, and 0.1 mg/mL lysozyme (manufactured by Wako Pure Chemical Industries, Ltd.).
The activity of the firefly luciferase and the Renilla luciferase was measured using Dual-Luciferase Reporter Assay System (manufactured by Promega Corp.). To 5 μL of the E. coli lysate, 50 μL of an assay solution for the firefly luciferase was added for the measurement. Then, 50 μL of an assay solution for the Renilla luciferase was added thereto for the measurement. An E. coli lysate supplemented only with DMSO was prepared as a control.
The luminescence intensity of the firefly luciferase was corrected against that of the Renilla luciferase by use of the equation given below. This series of experimental approaches is plotted in FIG. 1.
Relative luminescence intensity=Firefly luciferase/Renilla luciferase
Relative translation accuracy=Relative luminescence intensity (from the addition of only DMSO)/Relative luminescence intensity (in the presence of the compound)

[2] = tested on: islet of Langerhans isolated from a pancreatic β cell-specific Cdkal1-deficient mouse; experiment: Secondary screening: insulin secretion experiment by glucose stimulation; assay type: cell-based; set-up: insulin secretion under low-concentration (2.8 mM) and high-concentration (16.7 mM) glucose stimulation / concentration of insulin secreted into the Ringer solution: unit of the concentration uncertain
Text: The islet of Langerhans was isolated from a pancreatic β cell-specific Cdkal1-deficient mouse (see non-patent document 11) according to the literature (Gotoh M., et al., Transplantation, 1987, 43 (5), p. 725-730). The chest of the mouse was opened under ether anesthesia, and the common bile duct was peeled off. The pancreas swollen by the gradual injection of a collagenase solution (320 U/mL, manufactured by Sigma-Aldrich Corp.) was excised. The pancreas containing collagenase was digested for 30 minutes in a water bath of 37° C. and then dispersed with a pipette. The islet of Langerhans was isolated using a concentration gradient of a Ficoll solution (manufactured by Amersham Pharmacia Biotech Inc.). The islet of Langerhans was incubated for 30 minutes while kept at 37° C. in a Ringer solution (119 mM sodium chloride, 4.74 mM potassium chloride, 1.19 mM monosodium dihydrogen phosphate, 25 mM sodium bicarbonate, 10 mM HEPES, 2.54 mM calcium chloride, 1.19 mM magnesium chloride, and 0.2% BSA) saturated with a mixed gas of 95% O2 and 5% CO2.
Each low-molecular compound found positive in the primary screening was dissolved in DMSO, and this solution was added at a final concentration of 10 mM to a Ringer solution containing glucose to prepare a Ringer solution. A Ringer solution supplemented only with DMSO was prepared as a control.
The isolated mouse islet of Langerhans was first cultured for 30 minutes in a Ringer solution containing a low concentration (2.8 mM) of glucose. Then, the Ringer solution was replaced with a Ringer solution containing the low-molecular compound and the low concentration of glucose. After 30 minutes, the Ringer solution was recovered, and a Ringer solution containing the low-molecular compound and a high concentration (16.7 mM) of glucose was subsequently added thereto. After 30 minutes, the Ringer solution was recovered. The amount of insulin released into the Ringer solution was detected using an insulin detection kit (Libs Insulin-Mouse (S type), manufactured by Shibayagi Co., Ltd) according to the protocol of the kit.

[3] = tested on: pancreatic β cell-specific Cdkal1-deficient mouse; experiment: Tertiary screening: glucose tolerance after single administration; assay type: in vivo; conditions: 1 mg/kg transabdominally, glucose 1 g/kg after 30 minutes, versus saline administration group
Method: A pancreatic β cell-specific Cdkal1-deficient mouse and a wild-type mouse were each fasted overnight. Then, eperisone was transabdominally injected at a dose of 1 mg/kg to each mouse. Each control individual was prepared by the transabdominal injection of saline to each of a pancreatic β cell-specific Cdkal1-deficient mouse and a wild-type mouse. After 30 minutes, glucose was transabdominally injected at a dose of 1 g/kg to all of these mice. Blood was collected (5 μL) every 15 minutes from immediately after the administration of glucose. The blood glucose level in the mouse blood was measured using Accu-Chek AVIVA Nano (manufactured by F. Hoffmann-La Roche, Ltd.). The statistical test was conducted by repeated measure of two-way ANOVA.

[4] = tested on: pancreatic β cell-specific Cdkal1-deficient mouse; experiment: Glucose tolerance after long-term (14 days) administration; assay type: in vivo; conditions: 1 mg/kg transabdominally once a day over 14 days, glucose 1 g/kg 36 hours after last dose; versus DMSO administration group
Method: Each low-molecular compound found positive in the screening was transabdominally injected once a day over 14 days at a dose of 1 mg/kg to a pancreatic β cell-specific Cdkal1-deficient mouse. A Cdkal1-deficient mouse was prepared as a control by the injection of saline containing DMSO. Finally, glucose was transabdominally injected at a dose of 1 g/kg to all of the mice 36 hours after the administration of the low-molecular compound. Blood was collected (5 μL) from the tail vein every 15 minutes from immediately after the administration of glucose. The blood glucose level in the mouse blood was measured using Accu-Chek AVIVA Nano (manufactured by F. Hoffmann-La Roche, Ltd.). The statistical test was conducted by repeated measure of two-way ANOVA.

| Compound | improvement of translation accuracy as compared with the control (in words) [1] | blood glucose level after glucose administration [4] | relative translation accuracy with the translation accuracy of the control defined as 1 [1] | also measured |
| --- | --- | --- | --- | --- |
| COc1ccc(Cl)cc1C(=O)NCCc1ccc(S(=O)(=O)NC(=O)NC2CCCCC2)cc1 [glibenclamide] | none of the existing therapeutic agents for diabetes were shown to significantly improve translation accuracy | – | – | – |
| CCc1ccc(C(=O)C(C)CN2CCCCC2)cc1 (stereo not shown) [eperisone] | – | significantly decreased blood glucose level | – | insulin secretion under low-concentration (2.8 mM) and high-concentration (16.7 mM) glucose stimulation ([2]; compound at final concentration of 10 (unit uncertain) in Ringer solution, 30 minutes each): accelerate insulin secretion only under the high-concentration glucose stimulation; relative amount of insulin secreted compared with glibenclamide ([2]; high-concentration (16.7 mM) glucose stimulation, glibenclamide defined as 1): accelerate insulin secretion more highly than glibenclamide; blood glucose level after glucose administration [3]: significantly decreased blood glucose level |
| elvitegravir | – | – | approximately 8 times | – |
| CN(C)C(=N)N=C(N)N [metformin] | none of the existing therapeutic agents for diabetes were shown to significantly improve translation accuracy | – | – | – |
| CNCCC(Oc1ccc(C(F)(F)F)cc1)c1ccccc1 (stereo not shown) [fluoxetine] | – | significantly decreased blood glucose level | approximately 1.5 times | concentration of insulin secreted into the Ringer solution ([2]; low-concentration (2.8 mM) glucose stimulation, compound at final concentration of 10 (unit uncertain)): significantly improve insulin secretion |
